Some results are limits rather than exact numbers.

The subject of the first test is anti-DiAcSpm antibody Code No. NZW 2. In words: Cross-reactivity of affinity-purified anti-DiAcSpm antibody with urinary DiAcSpm analogues. In kind it is binding, rabbit. The note with it: cross-reactivity multiplied by abundance in urine: interference on urinary DiAcSpm determination. An excerpt: The antibody of the invention has one or both of the following properties: (i) its cross-reactivity with N^1-AcSpd (which is present in urine as a DiAcSpm analogue in an amount about 30-times greater than DiAcSpm) is 0.1% or less; (ii) total interference on the measurement results caused by its cross-reaction with DiAcSpm analogues present in urine is 5% or less. The numerical value mentioned in (i) above is a value showing the nature of the antibody. The numerical value mentioned in (ii) above is a value obtained by multiplying cross-reactivity itself by the abundance of these analogues in urine; this value can be an indicator showing how much interference these analogues would give actually on the quantitative determination of DiAcSpm.
Step-wise affinity purification was carried out to examine whether specific antibodies with sufficient purity applicable to a urinary DiAcSpm measuring system can be obtained. The affinity purification was carried out step-wise based on the method of Kawakita et al. (Hiramatsu, K. et al., J. Biochem., 124, 231-236 (1998)), using DiAcSpm column and DiSpd column prepared by derivatizing carboxy-Toyopearl with AcSpm and N8-AcSpd (FIG. 3).
Further, the total interference on the measurement results caused by the cross-reaction of this antibody with DiAcSpm analogues present in urine was 2.9%; thus, cross-reactivity of 5% or less was achieved (FIG. 4, Table 3).
For `CC(=O)NCCCNCCCCNCCCN` [AcSpm, monoacetylspermine], the “Cross-reactivity (1)x(2) %” value is listed as 0.131%.

Take `CC(=O)NCCCCNCCCNC(C)=O` [DiAcSpd, N^1,N^8-diacetylspermidine]: the “Cross-reactivity (1)x(2) %” value came out at 0.094%.

On to `CC(=O)NCCCNCCCCNCCCNC(C)=O` [DiAcSpm, N^1,N^12-diacetylspermine], for which the “Cross-reactivity (1)x(2) %” value is recorded as 100%.

With `CC(=O)NCCCNCCCCN` [N1-AcSpd, N^1-Ac-Spermidine], the “Cross-reactivity (1)x(2) %” value is listed as 2.65%.

Regarding `CC(=O)NCCCCNCCCN` [N8-AcSpd, N^8-Ac-Spermidine], the “Cross-reactivity (1)x(2) %” value turned out to be 0.024%.

The same test, now with this note: cross-reactivity of antibody NZW 2 with each polyamine, DiAcSpm = 100.
For the compound `CC(=O)NCCCNCCCCNCCCN` [AcSpm, monoacetylspermine], the “KiDiAcSpm/Ki"s"(%) (1)” value was 0.418%.

`CC(=O)NCCCCNCCCNC(C)=O` [DiAcSpd, N^1,N^8-diacetylspermidine]: the “KiDiAcSpm/Ki"s"(%) (1)” value is on record as 0.032%.

In the case of `CC(=O)NCCCNCCCCNCCCNC(C)=O` [DiAcSpm, N^1,N^12-diacetylspermine], the “KiDiAcSpm/Ki"s"(%) (1)” value came out at 100%.

In the case of `CC(=O)NCCCNCCCCN` [N1-AcSpd, N^1-Ac-Spermidine], the “KiDiAcSpm/Ki"s"(%) (1)” value is listed as 0.100%.

For the compound `CC(=O)NCCCCNCCCN` [N8-AcSpd, N^8-Ac-Spermidine], the “KiDiAcSpm/Ki"s"(%) (1)” value turned out to be 0.001%.

Still in this test, the particulars now being: cross-reactivity of antibody NZW 2 with each polyamine, DiAcSpm = 100; listed as N^1-AcSpd.
For the compound `CC(=O)NCCCNCCCCN` [N1-AcSpd, N^1-Ac-Spermidine], the “KiDiAcSpm/Ki"s"(%) (1)” value is given as no more than 0.1%.

Source of the values: patent US9134313B2, “Method of detecting colorectal cancer of stages 0 to I” (Tokyo Metropolitan Organization For Medical Research, priority 2003, dated 2015).
